In PubChem BioAssay (NCI):
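Briefly, cells in 96-well plates were exposed to five compound concentrations for 48 h, and endpoints were estimated by linear interpolation. GI50 marks 50% less growth. TGI: concentration producing complete growth inhibition.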

How the values were obtained:
Test in all cases: NCI anticancer screen, dose series, 48 h
HT29 colon = system: HT29 colon
SK-MEL-28 melanoma = system: SK-MEL-28 melanoma
786-0 renal = system: 786-0 renal
HCT-15 colon = system: HCT-15 colon
U251 CNS = system: U251 CNS
A498 renal = system: A498 renal
KM12 colon = system: KM12 colon
RXF 393 renal = system: RXF 393 renal
A549 NSCLC = system: A549 NSCLC
SK-OV-3 ovarian = system: SK-OV-3 ovarian

## COc1ccccc1NC(=O)CC(=O)N1N=C(C)C(N=Nc2ccc(S(N)(=O)=O)cc2)C1=O (stereo not given)
HT29 colon
  TGI: > 100 µM
SK-MEL-28 melanoma
  TGI: > 100 µM
786-0 renal
  TGI: > 100 µM
HCT-15 colon
  TGI: > 100 µM
U251 CNS
  TGI: > 100 µM
A498 renal
  TGI: > 100 µM
KM12 colon
  TGI: > 100 µM
RXF 393 renal
  TGI: > 100 µM
A549 NSCLC
  TGI: > 100 µM
SK-OV-3 ovarian
  TGI: > 100 µM

## CC1SC(c2c(Cl)cccc2Cl)N(NC(=O)c2[nH]c3ccc(F)cc3c2-c2ccccc2)C1=O (stereo not given)
HT29 colon
  GI50: 2.96 µM
  TGI: 10.8 µM
SK-MEL-28 melanoma
  GI50: 3.57 µM
  TGI: 17.2 µM
786-0 renal
  GI50: 2.14 µM
  TGI: 4.44 µM
HCT-15 colon
  GI50: 3.73 µM
  TGI: 22.2 µM
U251 CNS
  GI50: 1.78 µM
  TGI: 3.51 µM
A498 renal
  GI50: 2.33 µM
  TGI: 9.46 µM
KM12 colon
  GI50: 3.53 µM
  TGI: 20.9 µM
RXF 393 renal
  GI50: 1.73 µM
  TGI: 4.12 µM
A549 NSCLC
  GI50: 1.68 µM
  TGI: 3.16 µM
SK-OV-3 ovarian
  GI50: 1.95 µM
  TGI: 4.2 µM

## N#CC(C(=O)/C(=N/NC(=O)c1ccccc1O)C(C#N)c1ccc(Cl)cc1)c1ccc(Cl)cc1 (stereo not given)
HT29 colon
  TGI: 24.6 µM
SK-MEL-28 melanoma
  TGI: 27.7 µM
786-0 renal
  TGI: 29.9 µM
HCT-15 colon
  TGI: 37.7 µM
U251 CNS
  TGI: 22.5 µM
A498 renal
  TGI: 25.5 µM
KM12 colon
  TGI: 30 µM
RXF 393 renal
  TGI: 16.4 µM
A549 NSCLC
  TGI: 72.8 µM
SK-OV-3 ovarian
  TGI: 90.5 µM

## COc1cc(Cl)cc(-c2nn(C(=O)NCCN3CCOCC3)cc2-c2ccncc2)c1
HT29 colon
  GI50: 3.98 µM
  TGI: > 100 µM
SK-MEL-28 melanoma
  GI50: 4.6 µM
  TGI: 66 µM
786-0 renal
  GI50: 6.88 µM
  TGI: 37.9 µM
HCT-15 colon
  GI50: 3.79 µM
  TGI: > 100 µM
U251 CNS
  GI50: 4.7 µM
  TGI: > 100 µM
A498 renal
  GI50: 3.1 µM
  TGI: 35.2 µM
KM12 colon
  GI50: 3.79 µM
  TGI: > 100 µM
RXF 393 renal
  GI50: 2.67 µM
  TGI: 19.9 µM
A549 NSCLC
  GI50: 9.97 µM
  TGI: > 100 µM
SK-OV-3 ovarian
  GI50: 3.75 µM
  TGI: 19.7 µM

## O=Cc1cn(C(=O)c2ccccc2)c2ccccc12
HT29 colon
  TGI: > 100 µM
SK-MEL-28 melanoma
  TGI: > 100 µM
786-0 renal
  TGI: > 100 µM
HCT-15 colon
  TGI: > 100 µM
U251 CNS
  TGI: > 100 µM
A498 renal
  TGI: > 100 µM
KM12 colon
  TGI: > 100 µM
RXF 393 renal
  TGI: > 100 µM
A549 NSCLC
  TGI: > 100 µM
SK-OV-3 ovarian
  TGI: > 100 µM

## CC(C)(C)C#CC1=C(Br)C(=O)OC1
HT29 colon
  GI50: 0.116 µM
  TGI: > 100 µM
SK-MEL-28 melanoma
  GI50: 1.12 µM
  TGI: 67 µM
786-0 renal
  GI50: 2.27 µM
  TGI: 5.96 µM
HCT-15 colon
  GI50: 1.6 µM
  TGI: > 22.3 µM
U251 CNS
  GI50: 0.997 µM
  TGI: > 36.5 µM
A498 renal
  GI50: 4.04 µM
  TGI: 15.1 µM
KM12 colon
  GI50: 1.32 µM
  TGI: 3.6 µM
RXF 393 renal
  GI50: 2.44 µM
  TGI: 6.8 µM
A549 NSCLC
  GI50: 1.3 µM
  TGI: 8.73 µM
SK-OV-3 ovarian
  GI50: > 100 µM
  TGI: > 100 µM

## COC(=O)CCC1CCc2c(OC)ccc(O)c2C1=O (stereo not given)
HT29 colon
  TGI: > 100 µM
SK-MEL-28 melanoma
  TGI: > 100 µM
786-0 renal
  TGI: > 100 µM
HCT-15 colon
  TGI: > 100 µM
U251 CNS
  TGI: > 100 µM
A498 renal
  TGI: > 100 µM
KM12 colon
  TGI: > 100 µM
RXF 393 renal
  TGI: > 100 µM
A549 NSCLC
  TGI: > 100 µM
SK-OV-3 ovarian
  TGI: > 100 µM
